The subject of the assay is N2a cells. Put plainly: N2a differentiation by hBLEC-crossed OligoGM1 (morphology). The class given is cell-based, mouse. The note with it: basolateral solution (~25 μM), 24 h. How it is done:
For differentiation experiments, N2a cells were seeded at 5 × 10^3/cm^2 and incubated for 24 h in regular culture condition to allow cell attachment. Before all treatments, growth medium was removed and cells were adapted for 30 min in pre-warmed (37 °C) Transfectagro medium containing 2% heat-inactivated FBS, 1% L-glutamine, and 1% penicillin/streptomycin solution. All treatments were conducted at 37 °C in a humidified atmosphere of 95% air/5% CO2.
Precisely, [^3H]OligoGM1 (1 × 10^6 dpm) diluted into cold OligoGM1 solution (300 µM) was administered for 240 min to hBLECs in the upper compartment so that at a volume of 0.5 mL there was 150 nmol of OligoGM1. […] After the 240 min incubation period, the basolateral solution was screened to find the quantity of crossed OligoGM1 by measuring ^3H-radioactivity and was then administered to N2a cells for 24 h. […] Morphological signals of neurodifferentiation were evaluated by cell observation and TrkA-ERK1/2 pathway activation was verified by immunoblotting (for procedural details see Supplementary Materials and [22, 23]). […]
Since mycoplasma could infect of Caco-2 cells, we validated the absence of any contamination by two methods (data not shown). […] Briefly culture supernatants were mixed with MycoAlert reagents according to manufacturer instruction and the luminescence was measured after 10 min using fluorimeter (BioTek, H1, Vermont, Winooski). […]

We go through one compound from paper PMC7215935, “GM1 Oligosaccharide Crosses the Human Blood–Brain Barrier In Vitro by a Paracellular Route” (International Journal of Molecular Sciences, 2020).

Turning to `CC(=O)NC1C(O)CC(OC2C(O)C(OC3C(CO)OC(O)C(O)C3O)OC(CO)C2OC2OC(CO)C(O)C(OC3OC(CO)C(O)C(O)C3O)C2NC(C)=O)(C(=O)O)OC1C(O)C(O)CO` (stereo not drawn) [OligoGM1, β-Gal-(1-3)-β-GalNAc-(1-4)-[α-Neu5Ac-(2-3)]-β-Gal-(1-4)-β-Glc], the “N2a cell morphology / neurite sprouting” value is given as “induced a neuron-like morphology”.
